In PubChem BioAssay AID624419 (Sanford-Burnham Center for Chemical Genomics, 2012) one finds plasma stability data, which are given here for 85 compounds.

The test system of this data set is mouse plasma stability, percent remaining. As to the kind of experiment: stability of compounds in murine plasma, second set, biochemical ADME (AID 624419). As to conditions: at 1 µM.
For `O=[N+]([O-])c1ccc(CN2CCOCCOCCN(Cc3ccc([N+](=O)[O-])cc3)CCOCC2)cc1`, the plasma stability is 100%.

In turn, `Cc1cccc(-n2cnc3cc(C(=O)N4CCCCC4)ccc32)c1` registered a plasma stability of 87.1%.

For the compound `COc1ccc(N(C(=O)CCl)C(C(=O)NCCc2ccccc2)c2cccs2)cc1Cl` (stereo not given), the plasma stability was 15.3%.

`O=c1[nH]c(SCc2ccc(Cl)cc2)nc2c1CCC2` yielded a plasma stability of 100%.

In the case of `Brc1cc2c(cc1C1Nc3ccccc3C3C=CCC31)OCO2` (stereo not given), the plasma stability stood at 100%.

In turn, `O=C(O)c1ccccc1OCc1ccccc1Br` returned a plasma stability of 100%.

`COc1cccc(-c2nc(-c3ccc(NC(=O)Cc4ccccc4OC)cc3)no2)c1` had a plasma stability of 100%.

For `CCCc1cc(C(=O)N(C2CCCCC2)C2CCCCC2)no1`, the plasma stability was determined as 84%.

`COc1nc(-c2ccccc2)nnc1-c1ccccc1` displayed a plasma stability of 100%.

Compound `O=C(O)c1ccc(N2C(=O)/C(=C/c3ccc(-c4ccc([N+](=O)[O-])cc4)o3)C=C2c2ccccc2)cc1` showed a plasma stability of 99.7%.

With `CCCOc1ccc(-c2nc(OC)c3ccccc3n2)cc1`, the plasma stability was determined as 100%.

`CCCN(CCC)CCNC(=O)C1CCN(Cc2nc(-c3ccc(Cl)cc3)oc2C)CC1` had a plasma stability of 100%.

Regarding `COc1ccc(CNCc2cccc3ccccc23)cc1`, the plasma stability is 80.5%.

Regarding `Cc1ccc(C)c(OCCn2cc(C(=O)O)c3ccccc32)c1`, the plasma stability turned out to be 94.8%.

`Brc1ccc2c(c1)CN1CCCC1=N2` gave a plasma stability of 100%.

In turn, `CCOc1ccc(-c2nc(-c3ccncc3)no2)cc1OCC` returned a plasma stability of 92.1%.

Turning to `Cc1ccc(S(=O)(=O)n2c(N)nc3ccccc32)cc1`, the plasma stability was 100%.

`O=C(CSc1cccc2cccnc12)N1CCCC1` yielded a plasma stability of 100%.

For `CCCN1CNc2c(c(=O)[nH]c(=S)n2CCc2ccc(OC)c(OC)c2)C1`, the plasma stability was determined as 99.5%.

The compound `Cc1ccccc1N1CCN(c2ncnc3c2cnn3Cc2ccc(Cl)cc2)CC1` came in with a plasma stability of 100%.

The compound `COc1ccccc1N(/N=C1\Sc2ccccc2C1=O)C(C)=O` yielded a plasma stability of 4.35%.

Take `CCCc1nc2c(=O)n(C)c(=O)nc-2n(C)n1`: the plasma stability is 56.7%.

For the compound `CC(=O)c1ccc(N2CCN(S(=O)(=O)c3ccc4c(c3)CC(=O)N4)CC2)cc1`, the plasma stability was 100%.

Turning to `N#Cc1ccccc1CSc1nc2ncc(Br)cc2[nH]1`, the plasma stability stood at 100%.

The compound `COc1ccc(CSc2nc(C)cc(=O)[nH]2)cc1` showed a plasma stability of 100%.

In turn, `O=C(COc1ccccc1Br)NCCc1nc2ccccc2[nH]1` yielded a plasma stability of 100%.

`COc1ccc(S(=O)(=O)n2nc(OC(=O)c3ccccc3)cc2N)cc1` had a plasma stability of 73.7%.

`O=C(c1ccccn1)N(Cc1cccs1)C1(C(=O)NC2CCCCC2)CCCCC1` came in with a plasma stability of 100%.

Compound `C=CCn1c(SCC(=O)c2ccc(O)c(O)c2)nnc1-c1ccccc1OC` returned a plasma stability of 73.5%.

The compound `CCOc1ccc(NC(=S)N2CCC(C(O)(c3ccccc3)c3ccccc3)CC2)cc1` yielded a plasma stability of 73.7%.

As for `COc1ccc(S(=O)(=O)N2CCN(S(=O)(=O)c3ccc4c(c3)OCCO4)CC2)cc1`, the plasma stability was determined as 100%.

For `CC[C@H]1CN2CCc3cc(OC)c(OC)cc3[C@@H]2C[C@@H]1C[C@H]1NCCc2cc(OC)c(OC)cc21`, the plasma stability is 100%.

As for `CCCn1ncc(CN2CCCC(C(=O)c3cccc(OC(C)C)c3)C2)c1C` (stereo not given), the plasma stability turned out to be 96.7%.

For `COc1ccc(C2CC(c3ccccc3)=NN2c2ccc(S(N)(=O)=O)cc2)cc1` (stereo not given), the plasma stability was determined as 100%.

In turn, `COc1cc(NC(=O)c2cc(C3CC3)on2)c(OC)cc1Cl` registered a plasma stability of 42.4%.

Compound `Cc1ccnc(NC(=O)CCCOc2cc(=O)n(C)c3ccccc23)c1` came in with a plasma stability of 0.15%.

For the compound `CCc1nnc(NC(=O)c2ccc(NS(=O)(=O)c3ccccc3)cc2)s1`, the plasma stability stood at 97.6%.

With `O=C1NCCCc2c1oc1ccc(O)cc21`, the plasma stability came to 97.2%.

The compound `O=C(CCNS(=O)(=O)c1cccc2nsnc12)N1CCN(c2ccccn2)CC1` came in with a plasma stability of 100%.

In turn, `O=C1CCCC2=C1C1(CCCC1)N=C(Nc1nc3ccccc3o1)N2` showed a plasma stability of 100%.

`Cn1nnnc1Sc1ncnc2scc(-c3ccccc3)c12` yielded a plasma stability of 81.9%.

As to `Cc1ccc(C(=O)n2c3ccccc3c3ccccc32)cc1`, the plasma stability was 100%.

Turning to `Cc1ccc(NS(=O)(=O)c2ccc3c(c2)CCC(=O)N3)cc1C`, the plasma stability is 100%.

Regarding `Cc1cc(-c2nnc3n2CCCCC3)c(C)n1-c1ccccc1`, the plasma stability was found to be 91.3%.

As to `Cc1cc(C)n(-c2nc(NCCCO)c3c4c(sc3n2)CCCC4)n1`, the plasma stability worked out at 100%.

For `O=S1(=O)Nc2c(ccc3cccnc23)-c2ccccc21`, the plasma stability was determined as 100%.

Compound `CCOC(=O)C(C)Oc1cccc2c(=O)n(CC(=O)Nc3ccc4c(c3)OCCO4)ccc12` (stereo not given) yielded a plasma stability of 0.19%.

Take `CCCC(=O)Nc1cccc(NC(=O)c2ccccc2Br)c1`: the plasma stability was 0.14%.

`COC(=O)c1ccccc1NC(=O)c1ccc(F)cc1` registered a plasma stability of 17%.

Turning to `O=C(O)c1cccnc1SCCc1ccccc1`, the plasma stability stood at 100%.

Consider `Cc1ccc(N2CCN(S(=O)(=O)N3CCCCC3)CC2)c(C)c1`, for which the plasma stability was 100%.

In turn, `N#C/C(=C\c1ccc([N+](=O)[O-])o1)c1nc2ccccc2[nH]1` had a plasma stability of 9.6%.

`O=S(=O)(NC1CCCCC1N1CCOCC1)c1ccc(Cl)cc1` (stereo not given) returned a plasma stability of 100%.

`CN(C)c1nc(N)nc(CSc2nnnn2-c2cccc3ccccc23)n1` returned a plasma stability of 100%.

`c1ccc(-c2nnc(N3CCOCC3)nc2-c2ccccc2)cc1`: the plasma stability stood at 100%.

For the compound `CC(C)C(=O)NC(c1ccco1)c1ccc2cccnc2c1O` (stereo not given), the plasma stability turned out to be 95.2%.

As to `CCc1oc2ccccc2c1C(=O)c1cc(Br)c(O)c(Br)c1`, the plasma stability came to 100%.

`NC(=O)C1CCN(c2nc(-c3ccc(Br)cc3)cs2)CC1`: the plasma stability came to 82.8%.

`Cc1cc(C(=O)CN2C(=O)CCC2=O)c(C)n1Cc1ccccc1` registered a plasma stability of 98%.

`C/C=C/Cn1c(SCCCc2ccccc2)nc2c1c(=O)[nH]c(=O)n2C` registered a plasma stability of 100%.

Compound `Cc1nc(SCc2nc3ccccc3[nH]2)c2oc3ccccc3c2n1` registered a plasma stability of 100%.

For the compound `COc1ccc(OC)c(S(=O)(=O)Nc2cnc3ccccc3c2)c1`, the plasma stability amounted to 100%.

In the case of `O=C(O)CCC(NS(=O)(=O)c1ccc(-c2ccccc2)cc1)C(=O)O` (stereo not given), the plasma stability stood at 88.8%.

Compound `COc1ccc(OC)c(-c2nnc3n2N=C(c2ccc(OC)c(OC)c2)CS3)c1` returned a plasma stability of 100%.

Consider `CCN1CCN(c2nc3ccccc3nc2C(C#N)C(=O)OC2CCCCC2)CC1` (stereo not given), for which the plasma stability is 15.5%.

In turn, `Cc1ccc(-n2c(N)c(C#N)c(-c3ccccc3)c(C#N)c2=O)cc1` displayed a plasma stability of 100%.

In the case of `O=c1[nH]c2c(s1)C(c1cccnc1)C1C3CCC(C3)C1S2` (stereo not given), the plasma stability amounted to 100%.

Regarding `Cn1cnc([N+](=O)[O-])c1Sc1ncnc2nc[nH]c12`, the plasma stability was 84.1%.

`CN(C)c1oc(-c2ccc(OCc3ccc(Cl)cc3)cc2)nc1C#N` came in with a plasma stability of 91.4%.

Turning to `c1ccc2c(Nc3nnc(-c4ccncc4)s3)cccc2c1`, the plasma stability was determined as 96.4%.

Take `CN(C)C1=C(Cl)C(=O)N(c2ccc(Cl)c(Cl)c2)C1=O`: the plasma stability was found to be 6.46%.

Consider `O=C1C2CC=CCC2C(=O)N1c1n[nH]c(-c2ccccc2)n1` (stereo not given), for which the plasma stability is 52.7%.

`Cc1cc2c(s1)c1cnn(Cc3ccccc3F)c(=O)c1n2C` came in with a plasma stability of 89.8%.

`O=C(COC(=O)C12CC3CC(CC(C3)C1)C2)NCc1ccco1`: the plasma stability was found to be 2.35%.

Compound `Cc1ccc(NC(=O)CCC(=O)N/N=C/c2ccc([N+](=O)[O-])o2)cc1C` registered a plasma stability of 73.3%.

In turn, `c1ccc(CC2CCN(c3ncnc4sccc34)CC2)cc1` displayed a plasma stability of 100%.

As for `CS(=O)(=O)c1ccc(C(=O)OCC(=O)NC23CC4CC(CC(C4)C2)C3)cc1[N+](=O)[O-]`, the plasma stability was 91.4%.

`Cc1cc(C)nc(-n2nc(C)c(Sc3ccc(F)cc3)c2N)n1` yielded a plasma stability of 93.6%.

As for `Cc1ccc(S(=O)(=O)C(c2ccccc2)c2c(C)noc2C)cc1` (stereo not given), the plasma stability was determined as 97.8%.

For the compound `COc1ccc(C2c3c(ncn(CCN4CCOCC4)c3=N)Oc3ccc4ccccc4c32)cc1OC` (stereo not given), the plasma stability was 100%.

The compound `CSc1nc(-c2ccc(C)cc2)nc(C(Cl)Cl)n1` registered a plasma stability of 84.8%.

For the compound `CC1CCCN(C(C(=O)Nc2ccc3c(c2)OCCO3)c2ccccc2)C1` (stereo not given), the plasma stability turned out to be 100%.

With `Cc1ccc(S(=O)(=O)NCc2ccc(C(=O)NCCN(Cc3ccccc3)C(C)C)cc2)cc1`, the plasma stability amounted to 100%.

Consider `COc1ccc(Sc2ccc(NC(=O)c3ccccc3Cl)cc2C#N)cc1`, for which the plasma stability is 91.6%.

`Cc1ccc(C)c(NS(=O)(=O)c2cc(C(=O)Nc3ccccc3-c3ccccc3)ccc2Cl)c1` had a plasma stability of 83.4%.
